Read-outs that look alike come from different tables or passages of the source.
Columns and labels:
[1] = biological target: endogenous Gs-coupled β2-adrenergic receptor (Homo sapiens, UniProt P07550); details: A431 cells; Epic DMR vs whole cell cAMP kit (FIG. 3)
Method: For biosensor cellular assays, compound solutions were made by diluting the stored concentrated solutions with the HBSS (1× Hanks balanced salt solution, plus 20 mM Hepes, pH 7.1), and transferred into a 384 well polypropylene compound storage plate to prepare a compound source plate. Two compound source plates were made separately when a two-step assay was performed. In parallel, the cells were washed twice with the HBSS and maintained in 30 μl of the HBSS to prepare a cell assay plate. Both the cell assay plate and the compound source plate(s) were then incubated in the hotel of the reader system. After incubation the baseline wavelengths of all biosensors in the cell assay microplate were recorded and normalized to zero. Afterwards, a 2 to 10 min continuous recording was carried out to establish a baseline, and to ensure that the cells reached a steady state. Cellular responses were then triggered by transferring 10 μl of the compound solutions into the cell assay plate using the on-board liquid handler.

[2] = tested on: quiescent A431 cells (endogenous PDE4 isoforms); test: Label-free Epic RWG biosensor DMR assay of PDE inhibitors in synchronized quiescent A431 cells; assay type: cell-based, human; details: for DMR signal induced by PDE inhibitor: each at 12.5 micromolar, 22k cells per well, synchronized in HBSS under low CO2 for 2 hrs, vs vehicle; for DMR signal upon stimulation: synchronized in HBSS buffer for a shorter time (<90 min), data not shown
Method: Cells were typically grown using ˜1 to 2×10^4 cells per well at passage 3 to 15 suspended in 50 μl of the corresponding culture medium in the biosensor microplate, and were cultured at 37° C. under air/5% CO2 for ˜1 day. Except for A431 which was subject to ˜20 hr starvation through continuously culture in the serum-free DMEM, the other cell types were directly assayed without starvation.
Epic® wavelength interrogation system (Corning Inc., Corning, N.Y.) was used for whole cell sensing. This system consists of a temperature-control unit, an optical detection unit, and an on-board liquid handling unit with robotics. The detection unit is centered on integrated fiber optics, and enables kinetic measures of cellular responses with a time interval of ˜15 sec. The compound solutions were introduced by using the on-board liquid handling unit (i.e., pippetting).
The RWG biosensor is capable of detecting minute changes in local index of refraction near the sensor surface. Since the local index of refraction within a cell is a function of density and its distribution of biomass (e.g., proteins, molecular complexes), the biosensor exploits its evanescent wave to non-invasively detect ligand-induced dynamic mass redistribution in native cells. The evanescent wave extends into the cells and exponentially decays over distance, leading to a characteristic sensing volume of ˜150 nm, implying that any optical response mediated through the receptor activation only represents an average over the portion of the cell that the evanescent wave is sampling. The aggregation of many cellular events downstream the receptor activation determines the kinetics and amplitudes of a ligand-induced DMR.
All studies were carried out at a controlled temperature (28° C.). At least two independent sets of experiments, each with at least three replicates, were performed.
We further examined the DMR signal, if any, of the quiescent A431 cells upon treatment with PDE inhibitors. […] The quiescent A431 cells obtained under the same culture condition were used. Here the initial seeding numbers of cells were relatively low (˜20K cells per well in a 384 well Epic biosensor microplate tissue culture treated). […] After washing with the serum free medium, the cells were continuously cultured in the serum free medium for another 24 hrs to reach a quiescent state. Here the quiescent state was largely achieved through serum withdrawl. […] The cell membrane bound carbonic anahydrase is a known sensor for CO2 level.
In FIG. 4 the quiescent cells were achieved primarily through serum withdrawl. We were interested in the quiescent cells achieved through both contact inhibition and serum withdrawl. To do so, much higher initial seeding numbers of cells (>=25k cells per well for the 384 well Epic biosensor microplate) were used. […] Here both quiescent cells were subject to the same synchronization condition (2 hr incubation in the HBSS assay solution in a low CO2 environment).
Here the quiescent A431 cells were used using 22k cells per well in 384 well Epic biosensor microplates, followed by one day (˜24 hrs) culture in serum medium and 1 day (˜24 hrs) serum free medium, and sequential synchronization in the HBSS buffer solution under a relatively low CO2 environment for 2 hrs. […] For comparison, the DMR signal of cells stimulated with the buffer only (“Vehicle”) were included.

[3] = tested on: intracellular cAMP level of A431 cells; test: Chemiluminescence quantification of cyclic AMP in whole cell lysate; assay type: cell-based, human
Method: A431 cells were seeded in 96 well TCT microplate at 80000 cells/well, cultured for 20 hrs and starved for an extra 20 hrs. Cells were washed two time with HBSS and incubated with 100 μl of HBSS, Leibovitz's L-15 medium (Gibco) or 1 μM of Acetozamine (Sigma) in HBSS for 2 hrs in the Epic instrument. […] The medium or buffer was removed and cells were lysed in 100 μm al of lysis buffer (from cAMP HTS immunoassay kit, Millipore) containing 1 mM IBMX. 50 μl of cell extracts as well as cAMP standard were then analyzed using the same procedure described by the vendor.
A431 Cells were cultured in a serum rich medium on Corning tissue culture treated 96 well microplate until it reached a high confluency (˜95%). After washing, the cells were continuously cultured in a serum free medium for overnight. At this point, the cells were at ˜100% confluency. After washing with corresponding solution, the cells are incubated at the same low CO2 environment (˜2% CO2) for 2 hr. The cells were then lysed with a cell lysis buffer containing 100 micromolar IBMX to block the PDE activity, followed by cAMP measurements, using the protocol as recommended by the supplier.

endogenous Gs-coupled β2-adrenergic receptor, sequence (P07550 whole entry): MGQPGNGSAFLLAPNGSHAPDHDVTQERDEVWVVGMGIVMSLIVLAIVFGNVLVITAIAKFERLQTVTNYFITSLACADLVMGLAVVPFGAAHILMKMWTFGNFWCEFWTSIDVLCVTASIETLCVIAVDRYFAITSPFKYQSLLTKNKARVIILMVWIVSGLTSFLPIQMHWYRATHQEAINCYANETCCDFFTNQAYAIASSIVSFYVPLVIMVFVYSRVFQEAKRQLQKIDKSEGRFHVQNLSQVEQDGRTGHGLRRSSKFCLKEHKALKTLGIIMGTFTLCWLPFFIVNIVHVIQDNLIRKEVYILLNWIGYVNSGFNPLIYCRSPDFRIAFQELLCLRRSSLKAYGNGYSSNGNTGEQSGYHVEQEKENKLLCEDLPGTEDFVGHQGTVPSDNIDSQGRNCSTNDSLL

| SMILES | DMR signal induced by PDE inhibitor [2] | further results |
| --- | --- | --- |
| CNC[C@H](O)c1ccc(O)c(O)c1 [epinephrine] | – | potency to activate DMR signal relative to potency to cause whole cell cAMP accumulation [1]: much higher potency |
| O=C1CN2Cc3c(ccc(Cl)c3Cl)N=C2N1 [anagrelide] | did not result in any detectable DMR signals | – |
| CCc1ccc2c(-c3cccc(Cl)c3)nc(=O)n(CC)c2n1 [YM-976] | Gs-like DMR signal | – |
| Clc1cccc(Nc2nnc(-c3ccccc3)c3ccccc23)c1 [MY-5445] | did not result in any detectable DMR signals | – |
| CC(C)Cn1c(=O)n(C)c(=O)c2[nH]cnc21 [IBMX] | – | EC50 ([2]; quiescent A431 (~20K cells per well, serum withdrawl), the three synchronized conditions wherein IBMX led to a detectable DMR signal, read-out: potency of IBMX-induced DMR signal (EC50)): ~10 µM; IBMX-induced DMR signal ([2]; quiescent A431 synchronized in CO2 independent medium L-15, highest doses examined (FIG. 4c)): little DMR signals; IBMX-induced DMR signal ([2]; synchronized in 1×HBSS 20 mM Hepes pH 7.1 with or without acetamolamide, low CO2, 2 hr (FIG. 4A, 4B)): dose-dependent and robust DMR signal; IBMX-induced DMR signal ([2]; synchronized in CO2 independent L-15 medium containing acetamolamide at 1 micromolar (FIG. 4D)): robust DMR signal; DMR signal upon stimulation [2]: inconsistent DMR signal; impact on intracellular cAMP levels (whole cell lysate) ([3]; 10 nanomolar to 100 micromolar, all synchronization conditions, data not shown): little impact |
| COCc1nc2c([nH]1)c(=O)n(C)c(=O)n2CC(C)C [MMPX] | did not result in any detectable DMR signals | – |
| COc1ccc([C@@H]2CNC(=O)C2)cc1OC1CCCC1 [R-rolipram] | Gs-like DMR signal | EC50 ([2]; Homo sapiens, A-431, quiescent cells achieved through both contact inhibition and serum withdrawl (>=25k cells per well), 2 hr incubation in HBSS, low CO2, read-out: EC50 of DMR response): 0.25 µM; DMR signal upon stimulation [2]: inconsistent DMR signal |
| CCCn1c(=O)c(C)cn2nc(N)nc12 [ICI63197] | Gs-like DMR signal | – |
| CCCCOc1cc(CC2CNC(=O)N2)ccc1OC (centres unmarked) [Ro-20-1724] | Gs-like DMR signal | – |
| Cc1ccc([N+](=O)[O-])cc1S(=O)(=O)N(C)C [BRL-50481] | did not result in any detectable DMR signals | – |
| CCCOc1ccccc1-c1nc2nn[nH]c2c(=O)[nH]1 [zaprinast] | did not result in any detectable DMR signals | – |
| CC(=O)Nc1nnc(S(N)(=O)=O)s1 [acetazolamide] | – | basal cAMP level ([3]; quiescent A431 synchronized 2 hr, low CO2, in L-15 medium containing 1 micromolar acetazolamide): 0.74±0.1 pmole/160K cells |
| Cc1[nH]c(=O)c(C#N)cc1-c1ccncc1 [milrinone] | did not result in any detectable DMR signals | – |

Source: patent US20110020843A1, “LABEL-FREE METHODS RELATED TO PHOSPHODIESTERASES” (priority 2009, published 2011)
